# Test results taken from PubChem BioAssay (NCI).
#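 Dose response: 5 concentrations. Exposure: 48 h. Format: 96-well plates. Endpoint: linear interpolation; highest concentration if not reached. Abbreviation: GI50, concentration required for 50% inhibition of growth. The concentration for full growth arrest is given as TGI.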
# Legend:
# Assay in all cases: inhibition of tumour cell growth, NCI panel, 48 h
# 786-0 renal = tested on: 786-0 renal
# A498 renal = tested on: A498 renal
# A549 NSCLC = tested on: A549 NSCLC
# ACHN renal = tested on: ACHN renal
# BT-549 breast = tested on: BT-549 breast
# CAKI-1 renal = tested on: CAKI-1 renal
# CCRF-CEM leukemia = tested on: CCRF-CEM leukemia
# COLO 205 colon = tested on: COLO 205 colon
# DU-145 prostate = tested on: DU-145 prostate
# EKVX NSCLC = tested on: EKVX NSCLC
# HCC-2998 colon = tested on: HCC-2998 colon
# HCT-116 colon = tested on: HCT-116 colon
# HCT-15 colon = tested on: HCT-15 colon
# HL-60(TB) leukemia = tested on: HL-60(TB) leukemia
# HOP-62 NSCLC = tested on: HOP-62 NSCLC
# HOP-92 NSCLC = tested on: HOP-92 NSCLC
# HS 578T breast = tested on: HS 578T breast
# HT29 colon = tested on: HT29 colon
# IGROV1 ovarian = tested on: IGROV1 ovarian
# K-562 leukemia = tested on: K-562 leukemia
# KM12 colon = tested on: KM12 colon
# LOX IMVI melanoma = tested on: LOX IMVI melanoma
# M14 melanoma = tested on: M14 melanoma
# MALME-3M melanoma = tested on: MALME-3M melanoma
# MCF7 breast = tested on: MCF7 breast
# MDA-MB-231 breast = tested on: MDA-MB-231 breast
# MDA-MB-435 = tested on: MDA-MB-435
# MDA-MB-468 breast = tested on: MDA-MB-468 breast
# MOLT-4 leukemia = tested on: MOLT-4 leukemia
# NCI-H226 lung = tested on: NCI-H226 lung
# NCI-H23 lung = tested on: NCI-H23 lung
# NCI-H460 lung = tested on: NCI-H460 lung
# NCI-H522 lung = tested on: NCI-H522 lung
# NCI/ADR-RES ovarian = tested on: NCI/ADR-RES ovarian
# OVCAR-3 ovarian = tested on: OVCAR-3 ovarian
# OVCAR-4 ovarian = tested on: OVCAR-4 ovarian
# OVCAR-5 ovarian = tested on: OVCAR-5 ovarian
# OVCAR-8 ovarian = tested on: OVCAR-8 ovarian
# PC-3 prostate = tested on: PC-3 prostate
# RPMI-8226 leukemia = tested on: RPMI-8226 leukemia
# RXF 393 renal = tested on: RXF 393 renal
# SF-268 CNS = tested on: SF-268 CNS
# SF-295 CNS = tested on: SF-295 CNS
# SF-539 CNS = tested on: SF-539 CNS
# SK-MEL-2 melanoma = tested on: SK-MEL-2 melanoma
# SK-MEL-28 melanoma = tested on: SK-MEL-28 melanoma
# SK-MEL-5 melanoma = tested on: SK-MEL-5 melanoma
# SK-OV-3 ovarian = tested on: SK-OV-3 ovarian
# SN12C renal = tested on: SN12C renal
# SNB-19 CNS = tested on: SNB-19 CNS
# SNB-75 CNS = tested on: SNB-75 CNS
# SR leukemia = tested on: SR leukemia
# SW-620 colon = tested on: SW-620 colon
# T-47D breast = tested on: T-47D breast
# TK-10 renal = tested on: TK-10 renal
# U251 CNS = tested on: U251 CNS
# UACC-257 melanoma = tested on: UACC-257 melanoma
# UACC-62 melanoma = tested on: UACC-62 melanoma
# UO-31 renal = tested on: UO-31 renal
compound,measurement,setting,value
O=C(NCCCCC(c1ccc(F)cc1)c1ccc(F)cc1)NCCCc1cccnc1,GI50,786-0 renal,13.3 µM
same,TGI,786-0 renal,37.1 µM
same,GI50,A498 renal,18.3 µM
same,TGI,A498 renal,32.9 µM
same,GI50,A549 NSCLC,2.62 µM
same,TGI,A549 NSCLC,40.5 µM
same,GI50,ACHN renal,9.16 µM
same,TGI,ACHN renal,22.8 µM
same,GI50,BT-549 breast,3.21 µM
same,TGI,BT-549 breast,15.3 µM
same,GI50,CAKI-1 renal,5.87 µM
same,TGI,CAKI-1 renal,25.3 µM
same,GI50,CCRF-CEM leukemia,0.33 µM
same,TGI,CCRF-CEM leukemia,24.6 µM
same,GI50,COLO 205 colon,0.877 µM
same,TGI,COLO 205 colon,16.2 µM
same,GI50,DU-145 prostate,0.721 µM
same,TGI,DU-145 prostate,17.2 µM
same,GI50,EKVX NSCLC,5.01 µM
same,TGI,EKVX NSCLC,23.6 µM
same,GI50,HCC-2998 colon,0.822 µM
same,TGI,HCC-2998 colon,17.3 µM
same,GI50,HCT-116 colon,0.0931 µM
same,TGI,HCT-116 colon,13 µM
same,GI50,HCT-15 colon,0.461 µM
same,TGI,HCT-15 colon,14.9 µM
same,GI50,HL-60(TB) leukemia,1.64 µM
same,TGI,HL-60(TB) leukemia,> 39.4 µM
same,GI50,HOP-62 NSCLC,14.6 µM
same,TGI,HOP-62 NSCLC,30.2 µM
same,GI50,HOP-92 NSCLC,10.4 µM
same,TGI,HOP-92 NSCLC,26.5 µM
same,GI50,HS 578T breast,5.04 µM
same,TGI,HS 578T breast,34.9 µM
same,GI50,HT29 colon,0.619 µM
same,TGI,HT29 colon,17 µM
same,GI50,IGROV1 ovarian,0.816 µM
same,TGI,IGROV1 ovarian,19.2 µM
same,GI50,K-562 leukemia,0.385 µM
same,TGI,K-562 leukemia,> 100 µM
same,GI50,KM12 colon,0.81 µM
same,TGI,KM12 colon,18.4 µM
same,GI50,LOX IMVI melanoma,10.7 µM
same,TGI,LOX IMVI melanoma,23.4 µM
same,GI50,M14 melanoma,0.607 µM
same,TGI,M14 melanoma,16.4 µM
same,GI50,MALME-3M melanoma,8.47 µM
same,TGI,MALME-3M melanoma,21.7 µM
same,GI50,MCF7 breast,3.61 µM
same,TGI,MCF7 breast,20.3 µM
same,GI50,MDA-MB-231 breast,4.94 µM
same,TGI,MDA-MB-231 breast,20.9 µM
same,GI50,MDA-MB-435,0.444 µM
same,TGI,MDA-MB-435,15 µM
same,GI50,MDA-MB-468 breast,1.53 µM
same,TGI,MDA-MB-468 breast,10.6 µM
same,GI50,MOLT-4 leukemia,1.13 µM
same,TGI,MOLT-4 leukemia,> 50.5 µM
same,GI50,NCI-H226 lung,12.3 µM
same,TGI,NCI-H226 lung,29 µM
same,GI50,NCI-H23 lung,6.8 µM
same,TGI,NCI-H23 lung,23 µM
same,GI50,NCI-H460 lung,3.23 µM
same,TGI,NCI-H460 lung,19.4 µM
same,GI50,NCI-H522 lung,0.546 µM
same,TGI,NCI-H522 lung,16.1 µM
same,GI50,NCI/ADR-RES ovarian,0.584 µM
same,TGI,NCI/ADR-RES ovarian,17.3 µM
same,GI50,OVCAR-3 ovarian,4.58 µM
same,TGI,OVCAR-3 ovarian,22.4 µM
same,GI50,OVCAR-4 ovarian,4.71 µM
same,TGI,OVCAR-4 ovarian,53.1 µM
same,GI50,OVCAR-5 ovarian,0.628 µM
same,TGI,OVCAR-5 ovarian,17.8 µM
same,GI50,OVCAR-8 ovarian,0.127 µM
same,TGI,OVCAR-8 ovarian,26.4 µM
same,GI50,PC-3 prostate,0.645 µM
same,TGI,PC-3 prostate,19 µM
same,GI50,RPMI-8226 leukemia,0.627 µM
same,TGI,RPMI-8226 leukemia,20.3 µM
same,GI50,RXF 393 renal,12.4 µM
same,TGI,RXF 393 renal,27.3 µM
same,GI50,SF-268 CNS,12.3 µM
same,TGI,SF-268 CNS,29.2 µM
same,GI50,SF-295 CNS,1.82 µM
same,TGI,SF-295 CNS,15.4 µM
same,GI50,SF-539 CNS,0.0974 µM
same,TGI,SF-539 CNS,11.9 µM
same,GI50,SK-MEL-2 melanoma,4.24 µM
same,TGI,SK-MEL-2 melanoma,16.9 µM
same,GI50,SK-MEL-28 melanoma,10.6 µM
same,TGI,SK-MEL-28 melanoma,23.5 µM
same,GI50,SK-MEL-5 melanoma,1.22 µM
same,TGI,SK-MEL-5 melanoma,9.46 µM
same,GI50,SK-OV-3 ovarian,10.9 µM
same,TGI,SK-OV-3 ovarian,29 µM
same,GI50,SN12C renal,0.133 µM
same,TGI,SN12C renal,15.2 µM
same,GI50,SNB-19 CNS,1.79 µM
same,TGI,SNB-19 CNS,18.5 µM
same,GI50,SNB-75 CNS,8.64 µM
same,TGI,SNB-75 CNS,26.8 µM
same,GI50,SR leukemia,3.17 µM
same,TGI,SR leukemia,> 100 µM
same,GI50,SW-620 colon,0.297 µM
same,TGI,SW-620 colon,15.7 µM
same,GI50,T-47D breast,0.749 µM
same,TGI,T-47D breast,16.1 µM
same,GI50,TK-10 renal,13.7 µM
same,TGI,TK-10 renal,29.2 µM
same,GI50,U251 CNS,3.88 µM
same,TGI,U251 CNS,22.1 µM
same,GI50,UACC-257 melanoma,9.06 µM
same,TGI,UACC-257 melanoma,23.8 µM
same,GI50,UACC-62 melanoma,7.11 µM
same,TGI,UACC-62 melanoma,20.2 µM
same,GI50,UO-31 renal,5.51 µM
same,TGI,UO-31 renal,20.1 µM
